The target in assay [1] is T1, interaction between ERα/LBD and FL‐SRC1Box2 (Homo sapiens, UniProt P03372).
T1 construct: Recombinant ERα/LBD (ERα^302–552) was prepared as previously reported; made in house; host or cells: Escherichia coli BL21-CodonPlus-RP (ERα LBD); the probe is a synthetic peptide
T1 sequence (P03372 302-552): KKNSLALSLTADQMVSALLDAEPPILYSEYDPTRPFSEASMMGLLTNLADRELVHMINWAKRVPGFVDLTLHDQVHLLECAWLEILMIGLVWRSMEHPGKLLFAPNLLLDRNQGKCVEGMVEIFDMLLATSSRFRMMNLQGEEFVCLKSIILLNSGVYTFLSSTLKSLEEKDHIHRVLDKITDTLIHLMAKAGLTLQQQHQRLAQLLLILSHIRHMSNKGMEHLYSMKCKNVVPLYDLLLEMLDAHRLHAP
The assay is described as follows: FP competition: inhibition of the ERα/LBD–FL‐SRC1Box2 interaction. It counts as binding. The following applies: ERα/LBD 20 μM, four parameter logistic equation (Fig S5C). The procedure:
The binding activity of cHLH‐ERα was examined by fluorescence polarization (FP) analysis.^[ [26], [29] ^] The cHLH peptides were labeled with tetramethylrhodamine (TMR) to provide the fluorescent cHLH peptide TMR‐cHLH‐ERα, and fluorescent TMR‐YT1‐RS as a negative control (Figure 1, Figure S2, Supporting Information).
4. Fluorescence Polarization
The binding activity of the ERα-LBD was examined with 20 nM FL-SRC1Box2 (CH3CO- […]
C(FL)[…]-NH2; FL: Fluorescein) with 10 µM 17β-estradiol in 20 mM
Tris-HCl (pH 8.0), 25 mM NaCl, 10%(v/v) Glycerol, 1 mM TCEP as described. The concentration of FL-SRC1Box2 labeled with Fluorescein and TMR-cHLH-ERα and YT1-RS were determined from the absorption of Fluorescein or Tetramethylrhodamine. The respective peptide was incubated with ERα-LBD for 30 min in 20 mM Tris-HCl (pH 8.0), 25 mM NaCl with 1 mM 17β-estradiol, and the mixture was transferred into a 384-well microtiter well (Non-binding, Black, greiner bio -one) and the fluorescence polarization was measured on a spectrofluorometer (SpectraMax iD5, Molecular Devices) at 20 °C. The KD values were analyzed via a quadratic binding equation (Fig S5A, S5B) with the data fit to calculate by using KaleidaGraph 4.0 as described elsewhere. The IC50 value was estimated as 7.1 µM derived from four parameter logistic equation (Fig. S 5C). […]

Assay [2] deals with MCF‐7 breast cancer cells. The assay is described as follows: WST‐1 cell viability assay, 17β‐estradiol‐dependent proliferation. The assay is classed as cell-based. The following applies: WST‐1 assay, 3.125 to 25 μM peptide, 10 nM 17β‐estradiol, 72 h. The procedure:
Next, we examined the inhibitory activities of the peptides for the 17β‐estradiol‐dependent proliferation of MCF‐7 breast cancer cells using the WST‐1 assay (Figure 2D). The MCF‐7 cells were incubated with the serially diluted peptides cHLH‐ERα or YT1‐RS in the presence of 10 nM 17β‐estradiol.
For cell viability assay,^[ [35] ^] ER‐positive MCF‐7 cancer cells were grown in the recommended media Dulbecco's modified Eagle medium (DMEM) supplemented with 10% heat‐inactivated fetal bovine serum and with 1% penicillin–streptomycin (Gibco) in a humidified environment with 5% CO2. These cells were incubated in 96‐well plates (Corning) at 5,000 cells/well and cultured for 24 h. The cells were treated with 10 nM 17β‐estradiol for 1 h, then a various concentrations of peptides were added. After culturing the cells for 72 h, the proliferation f cells was measured by using WST‐1 reagent (Roche) according to the standard protocols. The absorbance was measured by using a microplate reader (Model 680, Bio‐Rad). Reliability of the cell viability assay was confirmed by using Tamoxifen (nacalai tesque) as a control.

The subject of assay [3] is human ERα and the transcriptional coactivator SRC1. In words: Yeast reporter assay (lacZ, β‐galactosidase) for ERα–SRC1 antagonism. It counts as cell-based. As to conditions: 100 μM peptide, 17β‐estradiol (10 and 100 nM), 18 h, 30 °C. The text has this:
The expression plasmids for human ERα and the transcriptional coactivator SRC1 were transformed, along with the lacZ reporter plasmid carrying the estrogen response element (RE).^[ [13] ^] The production of ERα and SRC1 was regulated by the galactose‐inducible GAL1‐10 promoter. In response to 17β‐estradiol, ERα, and SRC1 formed a complex on the RE, inducing the ligand‐dependent expression of β‐galactosidase (Figure S8, Supporting Information). The genes encoding the major cell wall mannoproteins Cwp1p and Cwp2p were deleted,^[ [30] ^] probably allowing the cHLH peptides to access the cell membrane by passing through the less dense cell wall of the yeast strain.^[ [32] ^] The effect of the cHLH peptide on the ERα–SRC1 interaction was examined in the presence of 17β‐estradiol (10 and 100 nM).
As previously reported,^[ [30] ^] the yeast strain ERα cwp1Δcwp2Δ was cultured on agar plates with synthetic dextrose (glucose) complete (SDC) dropout medium lacking tryptophan, leucine, and uracil (SDC‐Trp, Leu, Ura; 2% glucose, 2% agar) for single colony isolation. […] Absorbance at wavelengths of 405 and 595 nm was measured using Model 680 Microplate Reader (BioRad Lab., Inc.) to estimate the β‐galactosidase activity as the amount of o‐nitrophenol (ONP) produced and yeast cell density, respectively. The relative β‐galactosidase activity in each well was calculated as A405/A595. […]
On the technique in general: Reporter assays use an easily measured gene product as a stand-in for the process of interest.

SMILES strings stand for the structures. Bridge positions count the residues as written; N and C are the ends. Peptide text beside a SMILES is read from it.

As usually defined, the IC50 is the concentration that gives 50% inhibition. The low end stands for greater potency in that assay, the high end for weaker potency in that assay. In assay [1], `CC(C)C[C@@H]1NC(=O)[C@H](C)NC(=O)[C@H](C)NC(=O)[C@H](CC(C)C)NC(=O)[C@H](CCCCN)NC(=O)CNC(=O)CNC(=O)CNC(=O)CNC(=O)CNC(=O)CNC(=O)CNC(=O)[C@H](CCC(=O)O)NC(=O)[C@H](CC(C)C)NC(=O)[C@H](CCCNC(=N)N)NC(=O)[C@H](CCCNC(=N)N)NC(=O)[C@H](CC(C)C)NC(=O)[C@H](CCC(=O)O)NC(=O)[C@H](CCCNC(=N)N)NC(=O)[C@H](CCC(=O)O)NC(=O)[C@H](CC(C)C)NC(=O)[C@H](CCCNC(=N)N)NC(=O)[C@H](CCCNC(=N)N)NC(=O)[C@H](CC(C)C)NC(=O)[C@H](CCC(=O)O)NC(=O)[C@H](CCCNC(=N)N)NC(=O)[C@H](C)NC(=O)CNC(=O)CSC[C@@H](C(N)=O)NC(=O)[C@H](Cc2ccc(O)cc2)NC(=O)[C@H](C)NC(=O)[C@H](CCCCN)NC(=O)[C@H](CC(C)C)NC(=O)[C@H](CC(C)C)NC(=O)[C@H](CC(C)C)NC(=O)[C@H](CC(C)C)NC(=O)[C@H](CCCCN)NC(=O)[C@H](CC(C)C)NC(=O)[C@H](CCCCN)NC1=O` [cHLH‐ERα] ({CH2CO}-GARELRRLERELRRLEGGGGGGGKLAALKLKLLLLKAYC-NH2; thioether N-39) returned a 50% inhibitory concentration (IC50) of 7.1 µM. Besides, in assay [2], the “inhibitory activity for the 17β‐estradiol‐dependent proliferation of MCF‐7 cells” value is “inhibited the proliferation of MCF‐7 cells dose‐dependently”. Moreover, the “inhibition of transcriptional activity (β‐galactosidase) in yeast reporter assay” value in assay [3] is reported as “significantly inhibited transcriptional activity”.

The record behind these values is publication PMC12247020, “A Cyclized Helix‐Loop‐Helix Peptide as a Molecular Scaffold for Cell‐Membrane Permeable Inhibitors for the Interaction Between Estrogen Receptor α and Coactivator SRC1” (Chembiochem, 2025).
